Data published in PubChem BioAssay (NCI).
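Assay format: 96-well plates, 48-hour exposure. GI50: concentration for 50% inhibition of growth. TGI: total growth inhibition.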

Columns and labels:
Assay in all cases: inhibition of tumour cell growth, NCI panel, 48 h
T-47D breast = system: T-47D breast
UACC-62 melanoma = system: UACC-62 melanoma
MOLT-4 leukemia = system: MOLT-4 leukemia
HCT-116 colon = system: HCT-116 colon
SK-OV-3 ovarian = system: SK-OV-3 ovarian
UO-31 renal = system: UO-31 renal
OVCAR-4 ovarian = system: OVCAR-4 ovarian
HCC-2998 colon = system: HCC-2998 colon
OVCAR-5 ovarian = system: OVCAR-5 ovarian
NCI-H226 lung = system: NCI-H226 lung
A549 NSCLC = system: A549 NSCLC
786-0 renal = system: 786-0 renal
ACHN renal = system: ACHN renal
COLO 205 colon = system: COLO 205 colon
HOP-92 NSCLC = system: HOP-92 NSCLC
DU-145 prostate = system: DU-145 prostate
BT-549 breast = system: BT-549 breast
SF-295 CNS = system: SF-295 CNS
PC-3 prostate = system: PC-3 prostate
MDA-MB-231 breast = system: MDA-MB-231 breast
MDA-MB-435 = system: MDA-MB-435
K-562 leukemia = system: K-562 leukemia
NCI-H23 lung = system: NCI-H23 lung
SK-MEL-2 melanoma = system: SK-MEL-2 melanoma
SNB-75 CNS = system: SNB-75 CNS
SK-MEL-5 melanoma = system: SK-MEL-5 melanoma
A498 renal = system: A498 renal
SN12C renal = system: SN12C renal
SW-620 colon = system: SW-620 colon
M14 melanoma = system: M14 melanoma
MALME-3M melanoma = system: MALME-3M melanoma
HS 578T breast = system: HS 578T breast
CAKI-1 renal = system: CAKI-1 renal
RPMI-8226 leukemia = system: RPMI-8226 leukemia
SF-539 CNS = system: SF-539 CNS
CCRF-CEM leukemia = system: CCRF-CEM leukemia
OVCAR-3 ovarian = system: OVCAR-3 ovarian
UACC-257 melanoma = system: UACC-257 melanoma
RXF 393 renal = system: RXF 393 renal
SNB-19 CNS = system: SNB-19 CNS
IGROV1 ovarian = system: IGROV1 ovarian
SK-MEL-28 melanoma = system: SK-MEL-28 melanoma
EKVX NSCLC = system: EKVX NSCLC
HCT-15 colon = system: HCT-15 colon
NCI-H460 lung = system: NCI-H460 lung
LOX IMVI melanoma = system: LOX IMVI melanoma
SF-268 CNS = system: SF-268 CNS
OVCAR-8 ovarian = system: OVCAR-8 ovarian
KM12 colon = system: KM12 colon
SR leukemia = system: SR leukemia
MCF7 breast = system: MCF7 breast
HT29 colon = system: HT29 colon
NCI-H522 lung = system: NCI-H522 lung
TK-10 renal = system: TK-10 renal
U251 CNS = system: U251 CNS
HOP-62 NSCLC = system: HOP-62 NSCLC
NCI/ADR-RES ovarian = system: NCI/ADR-RES ovarian

N#CC(C#N)=C/C=C(\Sc1ccc(Cl)cc1)c1ccc(F)cc1
GI50 (T-47D breast): 13.3 µM | TGI (T-47D breast): > 71.6 µM | GI50 (UACC-62 melanoma): 2.03 µM | TGI (UACC-62 melanoma): 10.3 µM | GI50 (MOLT-4 leukemia): 0.281 µM | GI50 (HCT-116 colon): 0.0671 µM | TGI (HCT-116 colon): 0.508 µM | GI50 (SK-OV-3 ovarian): 13.5 µM | TGI (SK-OV-3 ovarian): 40.7 µM | GI50 (UO-31 renal): 1.85 µM | TGI (UO-31 renal): > 40.3 µM | GI50 (OVCAR-4 ovarian): 19.5 µM | TGI (OVCAR-4 ovarian): 60.3 µM | GI50 (HCC-2998 colon): 2.87 µM | TGI (HCC-2998 colon): 6.17 µM | GI50 (OVCAR-5 ovarian): 1.37 µM | TGI (OVCAR-5 ovarian): 15.3 µM | GI50 (NCI-H226 lung): 2.72 µM | TGI (NCI-H226 lung): 17.8 µM | GI50 (A549 NSCLC): 8.61 µM | TGI (A549 NSCLC): 32.3 µM | GI50 (786-0 renal): 0.42 µM | TGI (786-0 renal): 3.07 µM | GI50 (ACHN renal): 1.52 µM | TGI (ACHN renal): > 27.7 µM | GI50 (COLO 205 colon): 4.11 µM | TGI (COLO 205 colon): > 38.5 µM | GI50 (HOP-92 NSCLC): 0.501 µM | TGI (HOP-92 NSCLC): 13.2 µM | GI50 (DU-145 prostate): 0.525 µM | TGI (DU-145 prostate): > 33.6 µM | GI50 (BT-549 breast): 1.16 µM | TGI (BT-549 breast): 6.22 µM | GI50 (SF-295 CNS): 2.74 µM | TGI (SF-295 CNS): 9.94 µM | GI50 (PC-3 prostate): 0.496 µM | TGI (PC-3 prostate): 6.19 µM | GI50 (MDA-MB-231 breast): 1.84 µM | TGI (MDA-MB-231 breast): 6.25 µM | GI50 (MDA-MB-435): 0.81 µM | TGI (MDA-MB-435): 2.91 µM | GI50 (K-562 leukemia): 0.0844 µM | TGI (K-562 leukemia): > 100 µM | GI50 (NCI-H23 lung): 0.528 µM | TGI (NCI-H23 lung): 2.05 µM | GI50 (SK-MEL-2 melanoma): 4.15 µM | TGI (SK-MEL-2 melanoma): > 63.6 µM | GI50 (SNB-75 CNS): 16.6 µM | TGI (SNB-75 CNS): 31.7 µM | GI50 (SK-MEL-5 melanoma): 1.76 µM | TGI (SK-MEL-5 melanoma): 6.33 µM | GI50 (A498 renal): 3.42 µM | TGI (A498 renal): 8.67 µM | GI50 (SN12C renal): 0.986 µM | TGI (SN12C renal): 7.26 µM | GI50 (SW-620 colon): 0.0532 µM | GI50 (M14 melanoma): 0.729 µM | TGI (M14 melanoma): 2.61 µM | GI50 (MALME-3M melanoma): 1.6 µM | TGI (MALME-3M melanoma): 6.28 µM | GI50 (HS 578T breast): 2.75 µM | TGI (HS 578T breast): 22.8 µM | GI50 (CAKI-1 renal): 0.465 µM | TGI (CAKI-1 renal): 2.77 µM | GI50 (RPMI-8226 leukemia): 0.0597 µM | TGI (RPMI-8226 leukemia): 1.1 µM | GI50 (SF-539 CNS): 0.251 µM | TGI (SF-539 CNS): 0.872 µM | GI50 (CCRF-CEM leukemia): 0.0177 µM | TGI (CCRF-CEM leukemia): > 100 µM | GI50 (OVCAR-3 ovarian): 0.31 µM | TGI (OVCAR-3 ovarian): 2.6 µM | GI50 (UACC-257 melanoma): 6.88 µM | TGI (UACC-257 melanoma): 14.7 µM | GI50 (RXF 393 renal): 5.36 µM | TGI (RXF 393 renal): > 100 µM | GI50 (SNB-19 CNS): 5.67 µM | TGI (SNB-19 CNS): 24.9 µM | GI50 (IGROV1 ovarian): 2.09 µM | TGI (IGROV1 ovarian): 12.3 µM | GI50 (SK-MEL-28 melanoma): 6.61 µM | TGI (SK-MEL-28 melanoma): 19.3 µM | GI50 (EKVX NSCLC): 15.7 µM | TGI (EKVX NSCLC): 52.5 µM | GI50 (HCT-15 colon): 1.49 µM | TGI (HCT-15 colon): > 33.1 µM | GI50 (NCI-H460 lung): 2.31 µM | TGI (NCI-H460 lung): > 100 µM | GI50 (LOX IMVI melanoma): 0.403 µM | GI50 (SF-268 CNS): 2.46 µM | TGI (SF-268 CNS): 18.8 µM | GI50 (OVCAR-8 ovarian): 5.89 µM | TGI (OVCAR-8 ovarian): 12.7 µM | GI50 (KM12 colon): 0.87 µM | TGI (KM12 colon): 3.73 µM | GI50 (SR leukemia): 0.171 µM | TGI (SR leukemia): > 100 µM | GI50 (MCF7 breast): 0.982 µM | TGI (MCF7 breast): > 100 µM | GI50 (HT29 colon): 2.06 µM | TGI (HT29 colon): > 51.6 µM | GI50 (NCI-H522 lung): 2.8 µM | TGI (NCI-H522 lung): > 47.6 µM | GI50 (TK-10 renal): 0.857 µM | TGI (TK-10 renal): 3.61 µM | GI50 (U251 CNS): 1.23 µM | TGI (U251 CNS): > 34.5 µM | GI50 (HOP-62 NSCLC): 2.54 µM | TGI (HOP-62 NSCLC): 16 µM | GI50 (NCI/ADR-RES ovarian): 0.948 µM | TGI (NCI/ADR-RES ovarian): 4.94 µM
